Reference: PubChem BioAssay (NCI)
Where “and” joins values, the source holds several entries; their conditions need not be identical. Identical values can stand only once.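 In this assay, cells in 96-well plates receive the compound at five concentrations for 48 hours. Endpoints are linearly interpolated between the surrounding concentrations. GI50 is the concentration that inhibits growth by half. Definition used: TGI = concentration required for complete inhibition of growth.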

What was measured:
Assay in all cases: growth of human tumour cells (NCI), 48 h
[1] = system: A549 NSCLC
[2] = system: RPMI-8226 leukemia
[3] = system: OVCAR-4 ovarian
[4] = system: IGROV1 ovarian
[5] = system: HCT-15 colon
[6] = system: CCRF-CEM leukemia
[7] = system: COLO 205 colon
[8] = system: OVCAR-3 ovarian
[9] = system: SK-MEL-2 melanoma
[10] = system: CAKI-1 renal

| SMILES | TGI [1] | TGI [2] | TGI [3] | TGI [4] | TGI [5] | TGI [6] | TGI [7] [µM] | TGI [8] | TGI [9] | TGI [10] | GI50 [8] [µM] | GI50 [1] [µM] | GI50 [2] [µM] | GI50 [3] [µM] | GI50 [4] [µM] | GI50 [10] [µM] | GI50 [5] [µM] | GI50 [6] [µM] | GI50 [7] [µM] | GI50 [9] [µM] |
| --- | --- | --- | --- | --- | --- | --- | --- | --- | --- | --- | --- | --- | --- | --- | --- | --- | --- | --- | --- | --- |
| COc1ccc(C(=CCC(C)C2CCC3[C@@H]4C(OC(C)=O)CC5CC(OC(C)=O)CC[C@]5(C)C4CC(OC(C)=O)[C@]23C)c2ccc(OC)cc2)cc1 (stereo not given in full) | > 100 µM | > 100 µM | > 100 µM | > 100 µM | > 100 µM | > 100 µM | > 100 | – | – | – | – | – | – | – | – | – | – | – | – | – |
| CCCC(O)[C@@]1(CC)CC(C)C(O)(C2(C)C[C@H](C)[C@@H](C(CC)C(=O)C(C)[C@@H](O)[C@H](C)C3OC(O)(C(CC)C(=O)O)[C@@H](C)C(O)C3CC)O2)O1 (stereo not given in full) | 5.71 µM | – | 6.94 µM | 9.81 µM | 7.03 µM | 7.36 µM | 0.83 | 2.62 µM | 1.73 µM | 5.05 µM | – | – | – | – | – | – | – | – | – | – |
| O=c1[nH]c2ccccc2cc1-c1nnc(Cc2ccccc2)o1 | > 100 µM | 6.67 µM | 18.3 µM | 27.1 µM | 13.5 µM | 7.79 µM | 13.2 | 11 µM | – | 14.4 µM | 3.25 | 15.7 | 1.94 | 4.23 | 5.2 | 3.65 | 3.3 | 1.7 | 3.55 | – |
| N=C(N)n1cc(/C=N/N=C(N)N)cn1 | > 100 µM | > 100 µM | > 100 µM | > 100 µM | > 100 µM | > 100 µM | > 100 | > 100 µM | – | > 100 µM | – | – | – | – | – | – | – | – | – | – |
| CC(=O)C1(C(=O)C(=[N+]=[N-])S(=O)(=O)c2ccccc2)CC1 | > 100 µM | > 100 µM | – | > 100 µM | > 100 µM | > 100 µM | > 100 | > 100 µM | > 100 µM | – | – | – | – | – | – | – | – | – | – | – |
| OCC1OC(OC2(CO)OC(CO)C(O)C2O)C(O)C(O)C1O (stereo not given) | > 100 µM | > 100 µM | > 100 µM | > 100 µM | > 100 µM | > 100 µM | > 100 | > 100 µM | > 100 µM | > 100 µM | > 100 | > 100 | > 100 | > 100 | > 100 | > 100 | > 100 | > 100 | > 100 | > 100 |
| Nc1nc(-c2ccccc2)c(CC(=O)O)s1 | > 100 µM | > 100 µM | > 100 µM | > 100 µM | > 100 µM | – | > 100 | > 100 µM | > 100 µM | > 100 µM | – | – | – | – | – | – | – | – | – | – |
| Cc1ccc(-n2nc(C(OC3OC(CO)C(O)C(O)C3O)C(O)CO)c3nc4cc(C)c(C)cc4nc32)cc1 (stereo not given) | – | > 100 µM | > 100 µM | – | > 100 µM | > 100 µM | – | > 100 µM | – | – | – | – | – | – | – | – | – | – | – | – |
| Cc1nc2ccncc2[nH]1 | > 100 µM | – | > 100 µM | > 100 µM | > 100 µM | > 100 µM | > 100 | > 100 µM | > 100 µM | > 100 µM | – | – | – | – | – | – | – | – | – | – |
| CCCCCCCCCCCCCC(=O)O[C@H]1CC[C@H](NC(=O)[C@H](OC)[C@H](O)[C@@H](O)[C@H](O)/C=C/C(C)C)C(=O)N(C)C1 | 15 µM and 4.49 µM | 15 µM and 8.02 µM | 15 µM and 11.1 µM | 15 µM and > 23.8 µM | 15 µM and > 23.8 µM | 15 µM and 4.85 µM | – | 15 µM and > 23.8 µM | 15 µM and 6.33 µM | 0.668 µM | 0.0139 | 0.00238 | 0.00392 | 0.00391 | 0.00377 | – | 0.23 | 0.00238 | – | 0.0156 |
| O=C(O)c1ccccc1NCn1nc(-c2ccccc2O)oc1=S | > 100 µM | 24.5 µM | – | > 100 µM | 65.3 µM | 36.4 µM | > 100 | > 100 µM | > 100 µM | > 100 µM | > 100 | 51 | 4.14 | – | > 100 | > 100 | 24.6 | 10.6 | 49.6 | > 100 |
| O=C(Nc1nc(=S)[nH][nH]1)C(=O)C(c1cnc2ccc([N+](=O)[O-])cc2n1)[N+](=O)[O-] (stereo not given) | > 100 µM | > 100 µM | > 100 µM | > 100 µM | > 100 µM | > 100 µM | > 100 | > 100 µM | – | > 100 µM | – | – | – | – | – | – | – | – | – | – |
| CCOC(=O)c1cn(C)c2c(OC)c3ccccc3c(OC)c2c1=O | > 100 µM | > 100 µM | > 100 µM | > 100 µM | > 100 µM | > 100 µM | > 100 | 25.7 µM | – | 76.8 µM | 5.62 | 36.4 | 23.8 | 42.1 | 52.6 | 29.7 | 29.6 | 34.1 | 63.8 | – |
| O=C(O)c1ccccc1C(=O)c1ccco1 | > 100 µM | – | > 100 µM | > 100 µM | > 100 µM | > 100 µM | > 100 | > 100 µM | > 100 µM | > 100 µM | – | – | – | – | – | – | – | – | – | – |
| O=C1c2cccc3c(N4CCOCC4)ccc(c23)C(=O)N1CCN1CCN(CCCCCN2CCN(CCN3C(=O)c4cccc5c(N6CCOCC6)ccc(c45)C3=O)CC2)CC1 | > 100 µM | > 100 µM | > 100 µM | – | > 100 µM | > 100 µM | > 100 | > 100 µM | – | > 100 µM | 84.5 | > 100 | 23.2 | > 100 | – | > 100 | > 100 | 32.9 | 46.1 | – |
| C/C(CCN(C)C)=N/O | 17.4 µM | 11.4 µM | – | 39.2 µM | 25.1 µM | 7.14 µM | 15.8 | 2.04 µM | 31.5 µM | 24.2 µM | – | – | – | – | – | – | – | – | – | – |
| O=C1C=CC2(CCC23C=CC(=O)O3)O1 (stereo not given) | > 100 µM | > 100 µM | > 100 µM | > 100 µM | > 100 µM | > 100 µM | > 100 | > 100 µM | > 100 µM | – | – | – | – | – | – | – | – | – | – | – |
| COc1ccc([C@@]23Oc4cc(OC)cc(OC)c4[C@]2(O)[C@H](O)[C@H](C(=O)N(C)C)[C@H]3c2ccccc2)cc1 | – | – | – | – | – | – | 0.0197 | – | 0.0938 µM and 0.0112 µM and 0.0709 µM | 0.225 µM and 0.692 µM and 0.262 µM | 0.0164 | – | 0.0164 | 0.0149 | 0.0248 | 0.0218 | 0.015 | 0.0185 | – | 0.0225 |
